Patent US20250122465A1 (priority 2023, published 2025)
Where two headings read alike, the source gives them in different places.

Assays:
[1] = tested on: STRAIN-1; assay: Spore activation rate by phase-contrast microscopy, STRAIN-1; assay type: cell-based, Bacillus
[2] = tested on: Clostridium perfringens type A and G strains; settings: combined with taurocholate; cited from earlier work
[3] = Example 1, individual amino acid at its Table 1 amount (0.08-500 g/L), 42° C., 1 hour
[4] = Example 1, individual amino acid at its Table 1 amount (0.08-500 g/L), 42° C., 24 hours

SMILES | Activation Rate (%) at 1 hr. [1, 3] | Activation Rate (%) at 24 hrs. [1, 4] | further results
NCC(=O)O [Glycine] | 0% | 0% | 
OC[C@H]1O[C@@H](n2cnc3c(O)ncnc32)[C@H](O)[C@@H]1O [Inosine] | 0% | 0% | 
C[N+](C)(C)C[C@H](O)CC(=O)[O-] [L Carnitine] |  |  | Activation Rate (%) at 1 hr. [1]: 0%; Activation Rate (%) at 24 hrs. [1]: 0%
N=C(N)NCCC[C@H](N)C(=O)O [L-Arginine] | 0% | 0% | 
N[C@@H](CC(=O)O)C(=O)O [L-Aspartic acid] | 0% | 0% | 
N[C@@H](CS)C(=O)O [L-Cysteine] | 0% | 0% | 
N[C@@H](CSSC[C@H](N)C(=O)O)C(=O)O [L-Cystine] | 0% | 0% | 
N[C@@H](CCC(=O)O)C(=O)O [L-Glutamic acid] | 0% | 0% | 
NC(=O)CC[C@H](N)C(=O)O [L-Glutamine] | 0% | 0% | 
N[C@@H](Cc1c[nH]cn1)C(=O)O [L-Histidine] | 0% | 0% | 
CC[C@H](C)[C@H](N)C(=O)O [L-Isoleucine] |  | 99 +/− 0% | Activation Rate (%) at 24 hrs. ([1]; Example 1, individual amino acid at its Table 1 amount (0.08-500 g/L), 42° C., 24 hours, listed as L-isoleucine): 99%
CC(C)C[C@H](N)C(=O)O [L-Leucine] | 0% | 0% | Activation Rate (%) at 24 hrs. [1]: zero
NCCCC[C@H](N)C(=O)O [L-Lysine] |  |  | Activation Rate (%) at 1 hr. [1]: 0%; Activation Rate (%) at 24 hrs. [1]: 0%
CSCC[C@H](N)C(=O)O [L-Methionine] | 0% | 0% | 
N[C@@H](Cc1ccccc1)C(=O)O [L-Phenylalanine] | 0% | 0% | 
O=C(O)[C@@H]1CCCN1 [L-Proline] | 0% | 0% | 
N[C@@H](CO)C(=O)O [L-Serine] | 0% | 0% | 
C[C@@H](O)[C@H](N)C(=O)O [L-Threonine] | 0% | 0% | 
N[C@@H](Cc1c[nH]c2ccccc12)C(=O)O [L-Tryptophan] | 0% | 0% | 
N[C@@H](Cc1ccc(O)cc1)C(=O)O [L-Tyrosine] | 0% | 0% | 
CC(C)[C@H](N)C(=O)O [L-Valine] | 0% | 95 +/− 0% | Activation Rate (%) at 1 hr. [1]: did not result in any activation; Activation Rate (%) at 24 hrs. ([1]; Example 1, individual amino acid at its Table 1 amount (0.08-500 g/L), 42° C., 24 hours, listed as L-valine): 95%
C[C@H](N)C(=O)O [L-alanine] |  |  | spore germination induced [2]: approximately 50%
